The results in this text go back to patent US9321791B2, “8-[3-amino-piperidin-1-yl]-xanthines, the preparation thereof and their use as pharmaceutical compositions” (Boehringer Ingelheim International GmbH, priority 2002, dated 2016).

For this data set, the system named is rats. In words: Tolerability after oral administration to rats. The class given is in vivo. The note with it: 10 mg/kg.

Take `CC#CCn1c(N2CCC[C@@H](N)C2)nc2c1c(=O)n(Cc1ncc3ccccc3n1)c(=O)n2C` [2(80), 1-[(quinazolin-2-yl)methyl]-3-methyl-7-(2-butyn-1-yl)-8-((R)-3-amino-piperidin-1-yl)-xanthine]: the “changes in the animals' behaviour” value is “no changes in the animals' behaviour could be detected”.
